Columns and labels:
MCF-7 cell = settings: Braacke et al. 1991; cited from earlier work
[1] = tested on: ER at the AP-1 site of the collagenase promoter; assay: Collagenase promoter reporter in cells that express endogenous ER (Ishikawa, MCF-7, ZR-75-1); type: cell-based
Procedure: Left panel, coll73-CAT response with endogenous ER contrasted with the response of an ERE regulated reporter, ERE-coll60CAT. Right panel, coll73-LUC response with 3 μg co-transfected expression vector for human ER. Averages of three individual experiments are shown. […] A single representative experiment with triplicate hormone treatments is shown.
To further explore this phenomenon, and to test whether similar hormone effects could be detected at physiological levels of ER, the expression of the collagenase promoter in cells that express endogenous ER was examined.

[2] = tested on: ER at the AP1 site of the collagenase promoter, F9 cells; assay: Δcoll73 CAT reporter in F9 cells with transiently transfected ER; type: cell-based, human; settings: no c-Jun/c-fos, FIG. 1B
Source text: Cells were maintained and transfected as previously described in Webb et al., supra. […] […] The cells were glycerol shocked and refed in growth medium containing hormone or ethanolic vehicle.

[3] = tested on: human ER at the AP-1 site (collagenase promoter, AP-1-tk), HeLa cells; assay: CAT assays of HeLa cells transfected with AP-1 site reporter genes and human ER expression vector; type: cell-based; settings: transiently expressed human ER, FIG. 2A
Procedure: Representations, at left, show the human collagenase promoter (shaded) and the consensus AP-1 site. […] CAT activity is normalized to a transfection control with the actin promoter driving expression of βHCG. Single representative experiments are shown, error bars represent standard deviation of triplicate hormone treatments.
Cells were maintained and transfected as previously described in Webb et al., supra. […] F9 cells were seeded at 30% confluence upon 1.5 cm dishes and transfected overnight by calcium phosphate coprecipitation with 5 μg reporter gene, 1 μg actin β-HCG, and 1 μg of HEO, 300 ng each of c-jun and c-fos expression vectors. The cells were glycerol shocked and refed in growth medium containing hormone or ethanolic vehicle.
CAT assays were carried out as described in Webb et al., except that the cells were harvested one to two days after transfection instead of three. CAT activities were defined as the increase in cpm per hour at room temperature (corrected for background) per 100 μl of cell extract, normalized to production of 100 standard units of βHCG, from a co-transfected reporter gene, actin-HCG. […] Light units were defined as the luciferase activity per 100 μl of cell extract per 100 standard units of βHCG. Relative luciferase activities were calculated with respect to the results that were obtained in the absence of ER and hormone, which was set at 1 unit. For the data presented in Table I triplicate points were determined.
To further examine the effects of antiestrogens on the AP-1 directed pathway, reporter genes derived from the human collagenase promoter were transfected into HeLa cells.

[4] = tested on: CHO cells, which lack functioning ER; assay: Negative control: estrogen-responsive reporter constructs in CHO cells which lack functioning ER; type: cell-based; settings: same estrogen-responsive reporter constructs
Source text: To examine whether the series 4 compounds induce estrogenic activity through the ER, we tested the ability of ICI 164384 to inhibit the series 4 estrogenic activity. […] As a negative control, CHO cells, which lack functioning ER, were transfected with the same estrogen-responsive reporter constructs and treated with 17β-estradiol and the series 4 hydroxystilbenes.

Structure (SMILES): C[C@]12CC[C@@H]3c4ccc(O)cc4CC[C@H]3[C@@H]1CC[C@@H]2O [estradiol, 17β-estradiol]
- MCF-7 cell invasion activity of a re-constituted basement membrane (MCF-7 cell): stimulated
- activation of the collagenase promoter (coll73-CAT) ([1]; Ishikawa cells, endogenous receptor, FIG. 4A): activated
- induction of the collagenase promoter (coll73-LUC) ([1]; Ishikawa cells, receptor levels raised by transfection): inductions became larger
- activation of the collagenase promoter ([1]; MCF-7 cells, endogenous ER, FIG. 4B): activated
- activation of the collagenase promoter ([1]; ZR-75-1 cells): The same pattern occurred
- estrogen response of Δcoll73 [2]: failed to respond
- activation of the collagenase promoter (coll517, coll73) [3]: activated
- estrogenic activity in cells lacking functioning ER [4]: no estrogenic activity

Reference: patent US6884577B2, “Methods for screening compounds for estrogenic activity” (The Regents of the University of California, priority 1993, dated 2005)
